Eleven molecules from paper PMC11611271, “Rapid prediction of key residues for foldability by machine learning model enables the design of highly functional libraries with hyperstable constrained peptide scaffolds” (PLOS Computational Biology, 2024) can be followed below.

In one test the target is T1, CD8α-Fc (Homo sapiens, UniProt P01732).
T1 construct: purchased R&D AVI10927
As to the kind of experiment: SPR binding to CD8α-Fc. To be noted: folded synthetic peptide; Biacore S200, 25°C, HBS-EP w. 5% DMSO, single-cycle kinetics; kinetic fitting (values not marked *); N.B. = no binding. How it is done:
(§1) Peptide synthesis was done by CSBio (Menlo Park, CA). The linear peptides were synthesized as free N- and C- terminus. For the small-scale in vitro folding test, linear peptides were dissolved in 100% DMSO as 10 mg/ml stock, then 1/20 diluted into folding buffers. Five different buffer conditions were tested: [1] 0.1 M NH4HCO3 pH 9.0, 2 mM reduced glutathione, 0.5 mM oxidized glutathione, and 9% DMSO; [2] 0.1 M NH4HCO3 pH 8.0, 1 mM reduced glutathione, and 55% DMSO; [3] dI-water w. 5% DMSO; [4] 1X PBS pH 7.4 w. 10% DMSO; and [5] 1X PBS pH 7.4 w. 50% DMSO. Refolding was promoted by incubation at R.T. with gentle rotation and monitored by LC-MS for disulfide bond formation. […] Therefore, buffer condition was used as a universal refolding buffer for all HCP peptides. After refolding, peptides with three disulfide bonds were purified by HPLC according to standard procedure and subjected to SPR measurements.
(§2) All binding experiments were performed using a Biacore S200 instrument (GE Healthcare) at 25°C at a flow rate of 30 μl/min in HBS-EP buffer (Cytiva, #BR100188) w. 5% DMSO. The kinetics and affinity measurements were carried out using single-cycle kinetics (SCK) and referenced by subtracting the signal from the blank flow cell. […]
(In SPR one partner is held on a chip, and binding of the other changes the refractive index at the surface.)

Test [1] concerns the target T2, human full-length HtrA1 (Homo sapiens, UniProt Q92743).
T2 construct: we used human full-length HtrA1 (HtrA1), which was expressed in Trichoplusia ni cells; made in house; host or cells: Trichoplusia ni cells
As to the kind of experiment: HtrA1 enzymatic assay. The format is biochemical. How it is done:
For enzymatic assays we used human full-length HtrA1 (HtrA1), which was expressed in Trichoplusia ni cells and purified as described. Enzyme assays with the fluorescence-quenched synthetic substrate Mca-[…](Dnp)KK (H2-OPT) were carried out essentially as described. […] A 10 mM stock solution of H2-OPT in DMSO was diluted with water, prewarmed at 37°C and then added to the HCP-enzyme mixtures. The final concentrations in the reaction mixtures were: 1 nM HtrA1, 5 μM H2-OPT, 0.1% DMSO and varied concentrations of HCP. Substrate cleavage was measured at 37°C on a SPECTRAmax M5 microplate reader (Molecular Devices) and the initial rates of cleavage determined. The IC50 values were determined by fitting the data to the 4 parameter sigmoid function.

Another test has as its system HtrA1. As to the kind of experiment: phage spot ELISA on HtrA1. The format is binding. To be noted: Fig 9A; for ELISA s/n: Spot ELISA signal/noise; for ELISA signal: Spot ELISA. An excerpt:
To determine the performance of the libraries for ligand discovery we chose a panel of eight protein targets, which have no structural homology and a wide mass range (Fig 7C). We screened these eight targets with solution panning strategy and two additional plate panning for CD8α/β and CD28, thus ten panning campaigns in total. We consider clones showing spot phage ELISA signal > 0.3 and signal/noise ratio > 2 as positive hits. […] We also obtained the NGS data for these screening and the ranking of clones for their enrichment along the rounds of screening was analyzed and considered the top-ranking clones as potential hits. Based on their sequence diversity we selected 16 potential hits spanning five protein targets for peptide synthesis in their linear form. Seven of these are hits with positive phage ELISA signal and nine were selected based on NGS ranking without spot ELISA available. Subsequently, we conducted in vitro folding experiments on these peptides in various buffers.
(§3) The 5ji4 libraries were constructed following the Kunkel mutagenesis method and the solution panning protocol was followed as previously described. After four to five rounds of binding selection, while eluted pool was subjected to NGS analysis, individual phage clones were also picked and analyzed with phage spot ELISA. Positive clones were subjected to SANGER sequencing.
Among these five hits, A7, which is the SANGER hit, was picked for affinity maturation. Following the same strategy, one soft- and one hard-randomization library was designed targeting the 5JI4 variable regions 1 and 2, respectively. Two libraries were each panned as previously described. Both phage spot ELISA coupled with SANGER sequencing and NGS analysis were applied after affinity maturation.
Background: In an ELISA, binding on a coated surface is turned into a signal by an enzyme label.

In another test the target is CD28-Fc (Homo sapiens, UniProt P10747). As to the kind of experiment: SPR binding to CD28-Fc. Also on record: purchased R&D 342-CD-200. To be noted: folded synthetic peptide; Biacore S200, 25°C, HBS-EP w. 5% DMSO, single-cycle kinetics; kinetic fitting (values not marked *); N.B. = no binding. How it is done:
as §1, §2

The next test relates to CD28. As to the kind of experiment: phage spot ELISA on CD28. The format is binding.
Text: (§4) To determine the performance of the libraries for ligand discovery we chose a panel of eight protein targets, which have no structural homology and a wide mass range (Fig 7C). We screened these eight targets with solution panning strategy and two additional plate panning for CD8α/β and CD28, thus ten panning campaigns in total. We consider clones showing spot phage ELISA signal > 0.3 and signal/noise ratio > 2 as positive hits. At least one binding hit was discovered for nine out of the ten panning campaigns, surpassing the success rate of the best DCP scaffolds reported previously. We also obtained the NGS data for these screening and the ranking of clones for their enrichment along the rounds of screening was analyzed and considered the top-ranking clones as potential hits. Based on their sequence diversity we selected 16 potential hits spanning five protein targets for peptide synthesis in their linear form. Seven of these are hits with positive phage ELISA signal and nine were selected based on NGS ranking without spot ELISA available. Subsequently, we conducted in vitro folding experiments on these peptides in various buffers. We observed a strong propensity for spontaneous folding regardless of the buffer condition. All HCP hits tested successfully folded into three-disulfide-containing product within two days in a universal buffer system (PBS, pH 7.4, 50% DMSO) without the need for a redox pair, as shown in Fig 8A. The binding of these folded peptides to their respective target proteins was confirmed using SPR (Table 4 and S1 Data) and binding kinetics are exemplified by the high-affinity peptide 5ji4-CRD7-2 (see Fig 8B). Among seven selected ELISA-positive hits, all of them were successfully synthesized and in vitro folded with three disulfide bonds and five were proven to be validated binders by SPR (Table 4). Nine peptides selected from the NGS ranking were synthesized and folded with the expected number of disulfide bonds and five of them bound to their target with affinities in the μM range as determined by SPR (Table 4). In general, binding affinities for these SPR-validated initial hits are weak, with Kd values in the micromolar range and fast on- and off-rates. There are two exceptions with binding affinities in the nanomolar range.
as §3

For another test, the target named is T3, Fz7CRD-Fc (Homo sapiens, UniProt O75084).
T3 construct: Fz7CRD-Fc (R&D, #6178-FZ-50); purchased R&D 6178-FZ-50
As to the kind of experiment: SPR binding to Fz7CRD-Fc. The conditions noted are these: folded synthetic peptide; Biacore S200, 25°C, HBS-EP w. 5% DMSO, single-cycle kinetics; kinetic fitting (values not marked *); N.B. = no binding.

The next test concerns CD8α. The experiment in a line: phage spot ELISA on CD8α. It counts as binding.
Text: as §4, §3

A further test has as its target VEGF_(8-109) (UniProt P15692). As to the kind of experiment: SPR; Biacore S200, target on Series S Sensor Chip SA, peptide flowed, single-cycle kinetics, three-fold dilution series from approximately 100 μM, 25°C, 30 μl/min, HBS-EP with 5% DMSO; steady-state equilibrium model.
Test [2] concerns the target human full-length HtrA1 (human, UniProt Q92743 23-480). The experiment in a line: cell-based or functional assay.
A further test concerns the target T4, HtrA1^PD-S/A (human, UniProt Q92743 161-379, S328A).
T4 construct: serine protease HtrA1, D161-K379 with S328A; source: E. coli, produced in-house (Genentech)
As to the kind of experiment: SPR; Biacore S200, HtrA1^PD-S/A on Series S Sensor Chip SA, peptide flowed, 25°C, 30 μl/min, HBS-EP with 5% DMSO; fit model not told for these values. To be noted: both partners purified.

A further test has as its target T5, RSP02-Fc (UniProt Q6UXX9 22-243).
T5 construct: bought as Fc fusion; captured on a Protein A sensor chip by its Fc; source: bought: Biolegend, #786206
The experiment in a line: SPR; Biacore S200, Fc-fusion target on Sensor Chip Protein A, peptide flowed, single-cycle kinetics, three-fold dilution series from approximately 100 μM, 25°C, 30 μl/min, HBS-EP with 5% DMSO; 1:1 binding (kinetic) model, or no binding seen. The conditions noted are these: both partners purified.

Setting [3] is: phage spot ELISA of the clone, positive hit: signal > 0.3 and signal/noise > 2.
Setting [4] is: phage spot ELISA signal/noise ratio.

Where a SMILES comes first, the peptide text is derived from it. Bridges are numbered along the chain shown (N, C = ends). Where no end group is shown, it is not given here.

CD28-Fc, sequence (P10747 19-152 limits assumed): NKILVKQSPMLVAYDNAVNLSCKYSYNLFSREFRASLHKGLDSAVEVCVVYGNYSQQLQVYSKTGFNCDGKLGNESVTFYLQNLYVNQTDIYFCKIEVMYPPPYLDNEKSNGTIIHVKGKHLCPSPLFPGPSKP
T1 sequence (P01732 22-182 limits assumed): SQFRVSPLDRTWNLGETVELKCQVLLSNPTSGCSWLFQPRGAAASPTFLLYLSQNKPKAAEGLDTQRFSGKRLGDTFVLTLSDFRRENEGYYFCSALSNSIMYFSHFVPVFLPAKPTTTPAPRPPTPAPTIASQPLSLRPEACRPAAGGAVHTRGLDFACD
T2 sequence (Q92743 23-480): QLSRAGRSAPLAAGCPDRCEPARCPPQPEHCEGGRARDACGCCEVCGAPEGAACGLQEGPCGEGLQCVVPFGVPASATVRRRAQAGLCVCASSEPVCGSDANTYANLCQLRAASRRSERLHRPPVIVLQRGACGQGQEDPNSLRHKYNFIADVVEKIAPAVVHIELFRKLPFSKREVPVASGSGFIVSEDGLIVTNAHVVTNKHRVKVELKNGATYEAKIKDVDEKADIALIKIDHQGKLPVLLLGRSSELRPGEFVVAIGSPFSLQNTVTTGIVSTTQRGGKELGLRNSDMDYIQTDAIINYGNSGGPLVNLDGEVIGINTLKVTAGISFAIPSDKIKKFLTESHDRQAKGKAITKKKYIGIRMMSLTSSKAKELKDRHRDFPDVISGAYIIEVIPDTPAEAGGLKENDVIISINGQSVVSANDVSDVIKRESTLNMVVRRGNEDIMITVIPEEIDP
T5 sequence (Q6UXX9 22-243): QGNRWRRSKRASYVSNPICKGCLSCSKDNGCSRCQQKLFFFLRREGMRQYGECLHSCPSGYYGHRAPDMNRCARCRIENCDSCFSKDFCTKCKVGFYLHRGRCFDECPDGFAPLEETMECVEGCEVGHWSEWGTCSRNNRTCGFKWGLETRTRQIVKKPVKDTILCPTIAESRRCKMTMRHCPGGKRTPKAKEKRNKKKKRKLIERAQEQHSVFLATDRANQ
T4 sequence (Q92743 161-379 S328A): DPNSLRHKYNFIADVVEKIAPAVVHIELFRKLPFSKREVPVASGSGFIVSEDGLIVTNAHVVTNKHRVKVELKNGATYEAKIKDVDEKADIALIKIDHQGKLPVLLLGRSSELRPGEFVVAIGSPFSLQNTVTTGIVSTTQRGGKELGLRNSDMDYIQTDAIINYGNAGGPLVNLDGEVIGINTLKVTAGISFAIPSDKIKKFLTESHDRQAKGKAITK
human full-length HtrA1 (human, UniProt Q92743 23-480), sequence (Q92743 23-480): as the sequence (Q92743 23-480) above

In the case of “P C E C LVTPYKDDYKSSEE C ERL C RKLGVTN C RVH C G (bicyclic or more) [5ji4-CD8-8, 5JI4 library hit for CD8α, synthesized and folded in vitro]”, at CD8α-Fc, the “SPR Kd” value is recorded as “N.B”.
For the molecule “PCECDVNGETYTVSSSEECERLCRKLGVTNCRVHCG (also: bicyclic or more (positions not given here)) [5ji4, reference compound]”, the IC50 entry at human full-length HtrA1 [1] (1 nM HtrA1, 5 μM H2-OPT substrate, 0.1% DMSO, 15 min pre-incubation, 37°C, pH 8.0, 4 parameter fit) is on record as “not inhibitory”. In the test with HtrA1, this molecule registered an ELISA s/n of 1.4 and an ELISA signal of 0.83.
Turning to `CC[C@H](C)[C@@H]1NC(=O)[C@H]([C@@H](C)O)NC(=O)[C@@H]2CSSC[C@H](NC(=O)[C@H](CCC(=O)O)NC(=O)[C@H](C)NC(=O)[C@H](CO)NC(=O)[C@H](CO)NC(=O)[C@H]([C@@H](C)O)NC(=O)[C@H](CC(C)C)NC(=O)[C@H](Cc3ccccc3)NC(=O)[C@H](Cc3c[nH]cn3)NC(=O)[C@H](Cc3c[nH]c4ccccc34)NC(=O)CNC(=O)[C@H](CCCNC(=N)N)NC(=O)[C@H](CC(C)C)NC1=O)C(=O)N[C@@H](CCC(=O)O)C(=O)N[C@@H](CCCNC(=N)N)C(=O)N[C@@H](CC(C)C)C(=O)N[C@H]1CSSC[C@H](NC(=O)[C@H]([C@@H](C)O)NC(=O)[C@H](CCCNC(=N)N)NC(=O)[C@H](CC(C)C)NC(=O)CNC(=O)[C@H](CC(C)C)NC(=O)[C@H](CCCNC(=N)N)NC(=O)[C@H](CC(=O)O)NC1=O)C(=O)N[C@@H](CCCNC(=N)N)C(=O)N[C@@H](C(C)C)C(=O)N[C@@H](Cc1c[nH]cn1)C(=O)N[C@H](C(=O)NCC(=O)O)CSSC[C@H](NC(=O)[C@@H]1CCCN1)C(=O)N[C@@H](CCC(=O)O)C(=O)N2` [5ji4_A7] (H-PCECTILRGWHFLTSSAECERLCDRLGLRTCRVHCG-OH; disulfide 2-35, 4-19, 23-31), the “inhibition of HtrA1 activity” value against human full-length HtrA1 [1] (maximal inhibition in the concentration-response) is given as “complete inhibition”. Moreover, in the test with HtrA1, the ELISA s/n is listed as 5.8 and the ELISA signal was found to be 3.36.
As for “P C E C DVNGETYTVSSSEG C ERL C SWDQGKW C RVH C G (bicyclic or more) [5ji4-CD28-7, 5JI4 library hit for CD28, synthesized and folded in vitro]”, at CD28-Fc, the “SPR Kd” value is “N.B”. For the same molecule, in the test on CD28 (setting [3]), the ELISA signal is 0.25. In the test on CD28 (setting [4]), the ELISA s/n came out at 3.48.
As for “P C E C PIRPYGVPVKSSEE C ERL C MNDWATT C RVH C G (bicyclic or more) [5ji4-CRD7-5, 5JI4 library hit for CRD7, synthesized and folded in vitro]”, the “SPR Kd” value at Fz7CRD-Fc is “N.B”.
In the case of “P C D C DVNGETYTVSSSEE C EPL C LNWLSSL C RVH C G (bicyclic or more) [5ji4-CD8-16, 5JI4 library hit for CD8α, synthesized and folded in vitro]”, the “SPR Kd” value on CD8α-Fc is “N.B”. Further, in the test with CD8α (setting [3]), the ELISA signal was found to be 3.43. In the test on CD8α (setting [4]), the ELISA s/n is listed as 37.34.
“P C E C EDTTFFIIFNSSEE C ERL C RKLGVTN C RVH C G (bicyclic or more) [5ji4-CD28-4, 5JI4 library hit for CD28, synthesized and folded in vitro]”: the “SPR Kd” value at CD28-Fc is “N.B”.
The term Kd denotes the constant that tells how readily two partners part at equilibrium. Low values mean tighter binding, high ones weaker binding. As for PCECFMYDILVGLASSEECKRLCWGFGQSDCRVHCG [5ji4-VEGF-5], the Kd with VEGF_(8-109) came to 86 µM.
With PCECTILRGWHFLTSSAECERLCRKLGVTNCRVHCG, the “inhibition of HtrA1 enzyme activity (cleavage of the fluorescence-quenched substrate H2-OPT), IC50” value with human full-length HtrA1 [2] was 38 µM.

B1: 5ji4-A7 (peptide)
chain: H-PCECTILRGWHFLTSSAECERLCRKLGVTNCRVHCG-OH
modifications: disulfide (positions not given here); also: three disulfide bonds, pairing not given here
B1 had a Kd with HtrA1^PD-S/A of 2.72 µM.

B2: 5ji4-RSP-1 (peptide)
chain: PCECDVNGETYTVSSSEECEPLCWMYNEHFCRVHCG
notes: hit from the 5JI4 scaffold phage libraries; free N- and C-termini; three disulfide bonds; source: synthetic peptide (CSBio), folded in vitro, HPLC purified
In turn, B2 had a Kd in the test with RSP02-Fc of 22 ± 17 µM.
